Laboratory results published in US20260241046A1, “PROSTATE-SPECIFIC MEMBRANE ANTIGEN RECEPTOR-TARGETING RADIOPHARMACEUTICALS AND USES THEREOF” (Nuclidium AG, priority 2024, published 2026).

Key:
[1] = Lipophilicity log D (pH 7.4), shake-flask method; type: physicochemical; details: 1-octanol / PBS pH 7.4
Description: The lipophilic/hydrophilic character of [^61Cu]Cu-NODAGA-PSMA I&T was assessed by the determination of the distribution coefficient (D), expressed as log D at physiological pH (log D (pH 7.4)), between an aqueous and an organic phase following the “shake-flask” method. [^61Cu]Cu-NODAGA-PSMA I&T (1 μM) was added to a 50:50 pre-saturated mixture solution of 1-octanol and phosphate-buffered saline (PBS pH 7.4). The mixture was vortexed for 30 min and then centrifuged at 3000 rpm to achieve phase separation. Aliquots from each phase were collected and measured in a gamma counter. The distribution coefficient was calculated as the average logarithmic values of the ratio between the radioactivity in the organic and the PBS phase.

[2] = target: T1, PSMA-positive malignant lesions (Homo sapiens, UniProt Q04609); experiment: Human clinical trial, PET/CT comparison between Pylarify and [^61Cu]Cu-NODAGA-PSMA I&T; type: in vivo
T1 construct: from tissue; host or cells: prostate cancer lesions (bone and nodal metastases, prostate) of eight trial subjects
Description: This is a phase I, single center, non-randomized trial with 6-10 subjects. Each subject will have biopsy-proven prostate cancer visualized on FDA-approved ^18F-piflufolastat PET/CT performed within 3 weeks of trial recruitment. Each subject will receive a single administration of [^61Cu]Cu-NODAGA-PSMA I&T, followed by PET/CT imaging. Safety of [^61Cu]Cu-NODAGA-PSMA I&T will be evaluated by monitoring for unlikely adverse effects.
Subjects will undergo administration of 10 mL of 100-300 MBq (2.7-8.1 mCi) [^61Cu]Cu-NODAGA-PSMA I&T composition intravenously described in Table 20, followed by PET/CT imaging 60 (+/−10) minutes post radiotracer administration.
• Perform and record vital signs. • Place IV catheter. • Obtain blood for whole blood and plasma radioactivity counts prior to radiotracer administration and at 3-5 time points post radiotracer administration, from the following time ranges • a. 15 minutes (+/−10 minutes) • b. 30 minutes (+/−10 minutes) • c. 60 minutes (+/−15 minutes) • d. 120-240 minutes • e. 240-420 minutes • Administer 100-300 MBq ([…]) of [^61Cu]Cu-NODAGA-PSMA I&T composition intravenously. • Perform and record vital signs and assess for adverse reactions 30-60 minutes and 120-240 minutes post radiotracer administration. • Perform PET/CT imaging at 2 or 3 time points post radiotracer administration, from the following time ranges. • a. 60 minutes (+/−15 minutes) • b. 120-240 minutes • c. 240-420 minutes • Perform and record vital signs and assess for adverse reactions 120 (+/−10 minutes) post radiotracer administration. Visit 3—Day after Phone Call • Record any adverse reactions.
For the secondary objective of effectiveness, the number of suspected PSMA-positive malignant lesions will be calculated in both the standard-of-care ^18F-Piflufolastat PET/CT and the experimental [^61Cu]Cu-NODAGA-PSMA I&T PET/CT. The percentage of patients with any suspected PSMA-positive malignant lesions will be determined for each radiotracer. To assess whether the distribution of the number of lesions was higher with ^18F-Piflufolastat PET/CT or [^61Cu]Cu-NODAGA-PSMA I&T, 1-sided Wilcoxon […] tests for paired data will be performed. To account for the small sample size, results with a P value of less than 0.1 will be considered statistically significant.

T1 sequence (Q04609 whole entry): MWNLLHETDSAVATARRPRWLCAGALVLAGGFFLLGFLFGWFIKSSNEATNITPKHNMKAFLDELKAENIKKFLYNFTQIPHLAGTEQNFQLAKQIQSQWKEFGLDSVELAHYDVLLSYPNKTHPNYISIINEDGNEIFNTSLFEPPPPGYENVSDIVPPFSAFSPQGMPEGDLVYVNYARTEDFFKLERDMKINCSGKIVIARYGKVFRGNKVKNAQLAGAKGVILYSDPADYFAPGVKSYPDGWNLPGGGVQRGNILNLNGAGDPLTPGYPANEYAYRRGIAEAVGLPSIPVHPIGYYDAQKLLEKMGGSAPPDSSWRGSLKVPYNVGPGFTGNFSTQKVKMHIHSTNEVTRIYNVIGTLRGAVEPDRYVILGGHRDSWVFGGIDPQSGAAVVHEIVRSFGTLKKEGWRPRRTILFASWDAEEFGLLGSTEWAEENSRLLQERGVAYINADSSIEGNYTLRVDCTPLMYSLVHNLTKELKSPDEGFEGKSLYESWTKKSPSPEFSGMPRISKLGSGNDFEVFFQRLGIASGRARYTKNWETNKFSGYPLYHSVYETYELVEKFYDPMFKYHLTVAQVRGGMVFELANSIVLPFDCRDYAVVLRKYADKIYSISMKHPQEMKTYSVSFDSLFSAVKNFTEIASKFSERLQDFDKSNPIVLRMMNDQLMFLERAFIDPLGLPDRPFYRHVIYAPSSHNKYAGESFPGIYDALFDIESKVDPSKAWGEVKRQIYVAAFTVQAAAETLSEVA

## O=C([O-])CN1CCN(CC(=O)[O-])CCN([C@H](CCC(=O)N[C@H](Cc2ccc(O)c(I)c2)C(=O)N[C@H](Cc2ccccc2)C(=O)N[C@H](CCCCNC(=O)CCCCCCC(=O)NCCCC[C@H](NC(=O)N[C@@H](CCC(=O)O)C(=O)O)C(=O)O)C(=O)O)C(=O)O)CC1.[61Cu+2] [[^61Cu]Cu-NODAGA-PSMA I&T]
[1]
  log D (pH 7.4): −2.95±0.08
[2]; Subject 1
  Concordance: 100%
[2]; Subject 1, 1 hour
  % difference from Pylarify results at 1 hour: (12%)
  New Lesions Detected with [^61Cu]Cu-NODAGA-PSMA I&T: 5
  Tumor-to-Background Ratio with [^61Cu]Cu-NODAGA-PSMA I&T: 59.9
[2]; Subject 1, 2 hour
  % difference from Pylarify results at 1 hour: (115%)
  New Lesions Detected with [^61Cu]Cu-NODAGA-PSMA I&T: 7
  Tumor-to-Background Ratio with [^61Cu]Cu-NODAGA-PSMA I&T: 114.5
[2]; Subject 1, 4 hour
  % difference from Pylarify results at 1 hour: (154%)
  New Lesions Detected with [^61Cu]Cu-NODAGA-PSMA I&T: 8
  Tumor-to-Background Ratio with [^61Cu]Cu-NODAGA-PSMA I&T: 135.5
[2]; Subject 2
  Concordance: 100%
[2]; Subject 2, 1 hour
  % difference from Pylarify results at 1 hour: (37%)
  New Lesions Detected with [^61Cu]Cu-NODAGA-PSMA I&T: 0
  Tumor-to-Background Ratio with [^61Cu]Cu-NODAGA-PSMA I&T: 5.3
[2]; Subject 2, 2 hour
  % difference from Pylarify results at 1 hour: (−13%)
  New Lesions Detected with [^61Cu]Cu-NODAGA-PSMA I&T: 0
  Tumor-to-Background Ratio with [^61Cu]Cu-NODAGA-PSMA I&T: 3.4
[2]; Subject 2, 4 hour
  % difference from Pylarify results at 1 hour: (−43%)
  New Lesions Detected with [^61Cu]Cu-NODAGA-PSMA I&T: 0
  Tumor-to-Background Ratio with [^61Cu]Cu-NODAGA-PSMA I&T: 2.2
[2]; Subject 3
  Concordance: 100%
[2]; Subject 3, 1 hour
  % difference from Pylarify results at 1 hour: (52%)
  New Lesions Detected with [^61Cu]Cu-NODAGA-PSMA I&T: 1
  Tumor-to-Background Ratio with [^61Cu]Cu-NODAGA-PSMA I&T: 9.3
[2]; Subject 3, 2 hour
  % difference from Pylarify results at 1 hour: (9%)
  New Lesions Detected with [^61Cu]Cu-NODAGA-PSMA I&T: 1
  Tumor-to-Background Ratio with [^61Cu]Cu-NODAGA-PSMA I&T: 6.7
[2]; Subject 3, 4 hour
  % difference from Pylarify results at 1 hour: (274%)
  New Lesions Detected with [^61Cu]Cu-NODAGA-PSMA I&T: 3
  Tumor-to-Background Ratio with [^61Cu]Cu-NODAGA-PSMA I&T: 23.0
[2]; Subject 4
  Concordance: 100%
[2]; Subject 4, 1 hour
  % difference from Pylarify results at 1 hour: (64%)
  New Lesions Detected with [^61Cu]Cu-NODAGA-PSMA I&T: 0
  Tumor-to-Background Ratio with [^61Cu]Cu-NODAGA-PSMA I&T: 126.2
[2]; Subject 4, 2 hour
  % difference from Pylarify results at 1 hour: (110%)
  New Lesions Detected with [^61Cu]Cu-NODAGA-PSMA I&T: 2
  Tumor-to-Background Ratio with [^61Cu]Cu-NODAGA-PSMA I&T: 161.4
[2]; Subject 4, 4 hour
  % difference from Pylarify results at 1 hour: (98%)
  New Lesions Detected with [^61Cu]Cu-NODAGA-PSMA I&T: 10
  Tumor-to-Background Ratio with [^61Cu]Cu-NODAGA-PSMA I&T: 152.8
[2]; Subject 5
  Concordance: 100%
[2]; Subject 5, 1 hour
  % difference from Pylarify results at 1 hour: (98%)
  New Lesions Detected with [^61Cu]Cu-NODAGA-PSMA I&T: 0
  Tumor-to-Background Ratio with [^61Cu]Cu-NODAGA-PSMA I&T: 53.3
[2]; Subject 5, 2 hour
  % difference from Pylarify results at 1 hour: (154%)
  New Lesions Detected with [^61Cu]Cu-NODAGA-PSMA I&T: 0
  Tumor-to-Background Ratio with [^61Cu]Cu-NODAGA-PSMA I&T: 68.3
[2]; Subject 5, 4 hour
  % difference from Pylarify results at 1 hour: (160%)
  New Lesions Detected with [^61Cu]Cu-NODAGA-PSMA I&T: 0
  Tumor-to-Background Ratio with [^61Cu]Cu-NODAGA-PSMA I&T: 70.0
[2]; Subject 6
  Concordance: 100%
[2]; Subject 6, 1 hour
  % difference from Pylarify results at 1 hour: (60%)
  New Lesions Detected with [^61Cu]Cu-NODAGA-PSMA I&T: 0
  Tumor-to-Background Ratio with [^61Cu]Cu-NODAGA-PSMA I&T: 11.3
[2]; Subject 6, 2 hour
  % difference from Pylarify results at 1 hour: (126%)
  New Lesions Detected with [^61Cu]Cu-NODAGA-PSMA I&T: 0
  Tumor-to-Background Ratio with [^61Cu]Cu-NODAGA-PSMA I&T: 16.0
[2]; Subject 6, 4 hour
  % difference from Pylarify results at 1 hour: (230%)
  New Lesions Detected with [^61Cu]Cu-NODAGA-PSMA I&T: 0
  Tumor-to-Background Ratio with [^61Cu]Cu-NODAGA-PSMA I&T: 23.3
[2]; Subject 7
  Concordance: 100%
[2]; Subject 7, 1 hour
  % difference from Pylarify results at 1 hour: (45%)
  New Lesions Detected with [^61Cu]Cu-NODAGA-PSMA I&T: 3
  Tumor-to-Background Ratio with [^61Cu]Cu-NODAGA-PSMA I&T: 5.6
[2]; Subject 7, 2 hour
  % difference from Pylarify results at 1 hour: (70%)
  New Lesions Detected with [^61Cu]Cu-NODAGA-PSMA I&T: 3
  Tumor-to-Background Ratio with [^61Cu]Cu-NODAGA-PSMA I&T: 6.6
[2]; Subject 7, 4 hour
  % difference from Pylarify results at 1 hour: (287%)
  New Lesions Detected with [^61Cu]Cu-NODAGA-PSMA I&T: 5
  Tumor-to-Background Ratio with [^61Cu]Cu-NODAGA-PSMA I&T: 15.0
[2]; Subject 8
  Concordance: 100%
[2]; Subject 8, 1 hour
  % difference from Pylarify results at 1 hour: (−10%)
  New Lesions Detected with [^61Cu]Cu-NODAGA-PSMA I&T: 0
  Tumor-to-Background Ratio with [^61Cu]Cu-NODAGA-PSMA I&T: 24.2
[2]; Subject 8, 2 hour
  % difference from Pylarify results at 1 hour: (29%)
  New Lesions Detected with [^61Cu]Cu-NODAGA-PSMA I&T: 0
  Tumor-to-Background Ratio with [^61Cu]Cu-NODAGA-PSMA I&T: 34.5
[2]; Subject 8, 4 hour
  % difference from Pylarify results at 1 hour: (123%)
  New Lesions Detected with [^61Cu]Cu-NODAGA-PSMA I&T: 0
  Tumor-to-Background Ratio with [^61Cu]Cu-NODAGA-PSMA I&T: 59.7
[2]; Subject #1
  metastases visualized compared with Pylarify PET/CT: More osseous metastases were visualized
[2]; Subject #2
  metastases visualized compared with Pylarify PET/CT: Same number of metastases were observed
[2]; Subject #3, 4 hours
  pelvic nodal metastases seen on PET/CT: 5
[2]; Subject #4
  metastases visualized compared with Pylarify PET/CT: More osseous metastases were observed
[2]; Subject #5
  metastases visualized compared with Pylarify PET/CT: Equal number of osseous metastases were observed
[2]; Subject #6
  metastases visualized compared with Pylarify PET/CT: One avid 0.4 cm left pelvic sidewall lymph node seen on both
[2]; Subject #7
  metastases visualized compared with Pylarify PET/CT: More osseous metastases were detected
[2]; Subject #8
  metastases visualized compared with Pylarify PET/CT: Solitary avid osseous metastasis were observed in both exams
[2]; eight subjects
  detection rate of metastatic lesions compared with Pylarify: higher detection rate of metastatic lesions
  higher tumor-to-background ratio than Pylarify, on average: 90%
